IC50 data for 20 compounds are collected here from US20040082635A1, “Fused cyclic compounds and medicinal use thereof” (priority 2001, published 2004).

Molecules are shown by their SMILES. pIC50: −log10 of the molar value. Counter-ions that a name gives are not always drawn.

The first assay deals with T1, HCV polymerase (Hepatitis C virus genotype 1b, UniProt P26663).
T1 construct: a region encoding NS5B (591 amino acids; J Virol 1991 Mar, 65(3), 1105-13) was amplified by PCR; 6 His (N); made in house; host or cells: Escherichia coli
T1 sequence (P26663 2420-3010): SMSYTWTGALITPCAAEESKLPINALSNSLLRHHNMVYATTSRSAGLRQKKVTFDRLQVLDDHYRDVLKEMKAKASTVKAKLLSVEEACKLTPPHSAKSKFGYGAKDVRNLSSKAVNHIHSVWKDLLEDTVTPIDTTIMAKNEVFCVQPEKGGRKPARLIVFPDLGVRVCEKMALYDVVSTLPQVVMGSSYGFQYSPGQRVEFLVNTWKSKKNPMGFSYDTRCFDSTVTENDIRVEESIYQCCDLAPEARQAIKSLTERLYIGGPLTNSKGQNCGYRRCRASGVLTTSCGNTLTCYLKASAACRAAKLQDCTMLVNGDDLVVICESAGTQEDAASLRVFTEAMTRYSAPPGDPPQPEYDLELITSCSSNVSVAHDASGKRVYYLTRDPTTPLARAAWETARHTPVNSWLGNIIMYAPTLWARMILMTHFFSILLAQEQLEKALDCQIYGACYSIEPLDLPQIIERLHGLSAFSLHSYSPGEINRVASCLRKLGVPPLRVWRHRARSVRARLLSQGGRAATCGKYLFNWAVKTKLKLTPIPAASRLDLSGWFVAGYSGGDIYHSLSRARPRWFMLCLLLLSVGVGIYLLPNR
The assay can be described thus: biochemical. As to conditions: HCV polymerase inhibitory activity IC50.
In the case of `O=C1CCN(C(=O)c2ccc(-c3ccc(Cl)cc3)c(COc3ccc(-c4nc5cc(C(=O)O)ccc5n4C4CCCCC4)cc3)c2)CC1` [Example 328, 2-{4-[2-(4-chlorophenyl)-5-(4-oxopiperidinocarbonyl)-benzyloxy]phenyl}-1-cyclohexylbenzimidazole-5-carboxylic acid hydrochloride], the negative-log IC50 (pIC50) was 7.82.

Staying with this assay, now noted: read-out: HCV polymerase inhibitory activity IC50.
`CN(Cc1ccccc1)C(=O)c1ccc(-c2ccc(Cl)cc2)c(COc2ccc(-c3nc4cc(C(=O)O)ccc4n3C3CCCCC3)cc2)c1` [Example 319, 2-{4-[2-(4-chlorophenyl)-5-(N-benzyl-N-methylcarbamoyl)-benzyloxy]phenyl}-1-cyclohexylbenzimidazole-5-carboxylic acid hydrochloride]: the negative-log IC50 (pIC50) was 7.52.
Regarding `CN(C)C(=O)c1ccc(-c2ccncc2)c(COc2ccc(-c3nc4cc(C(=O)O)ccc4n3C3CCCCC3)cc2)c1` [Example 320, 2-{4-[5-dimethylaminocarbonyl-2-(4-pyridyl)benzyloxy]phenyl}-1-cyclohexylbenzimidazole-5-carboxylic acid dihydrochloride], the pIC50 is 7.44.
Same read-out and setting: as for `CN1CCN(C(=O)c2ccc(-c3ccc(Cl)cc3)c(COc3ccc(-c4nc5cc(C(=O)O)ccc5n4C4CCCCC4)cc3)c2)CC1` [Example 321, 2-{4-[2-(4-chlorophenyl)-5-(4-methylpiperazin-1-ylcarbonyl)benzyloxy]phenyl}-1-cyclohexylbenzimidazole-5-carboxylic acid dihydrochloride], the figure is 7.82; as for `O=C(O)c1ccc2c(c1)nc(-c1ccc(OCc3cc(C(=O)NCc4cccnc4)ccc3-c3ccc(Cl)cc3)cc1)n2C1CCCCC1` [Example 322, 2-{4-[2-(4-chlorophenyl)-5-{N-(3-pyridylmethyl)carbamoyl}-benzyloxy]phenyl}-1-cyclohexylbenzimidazole-5-carboxylic acid dihydrochloride], 7.80.
Regarding `O=C(O)c1ccc2c(c1)nc(-c1ccc(OCc3cc(C(=O)NCc4ccccn4)ccc3-c3ccc(Cl)cc3)cc1)n2C1CCCCC1` [Example 323, 2-{4-[2-(4-chlorophenyl)-5-{N-(2-pyridylmethyl)carbamoyl}-benzyloxy]phenyl}-1-cyclohexylbenzimidazole-5-carboxylic acid dihydrochloride], the pIC50 is 7.74.
`O=C(O)c1ccc2c(c1)nc(-c1ccc(OCc3cc(C(=O)NC4CCCCC4)ccc3-c3ccc(Cl)cc3)cc1)n2C1CCCCC1` [Example 324, 2-{4-[2-(4-chlorophenyl)-5-(cyclohexylcarbamoyl)benzyloxy]-phenyl}-1-cyclohexylbenzimidazole-5-carboxylic acid hydrochloride]: the pIC50 is 7.57.
Same read-out and setting: as for `O=C(O)c1ccc2c(c1)nc(-c1ccc(OCc3cc(C(=O)NCCc4ccncc4)ccc3-c3ccc(Cl)cc3)cc1)n2C1CCCCC1` [Example 325, 2-{4-[2-(4-chlorophenyl)-5-(2-pyridin-4-ylethylcarbamoyl)-benzyloxy]phenyl}-1-cyclohexylbenzimidazole-5-carboxylic acid dihydrochloride], the figure is 7.72.
In the case of `CN(C)C(=O)c1ccc(C(Oc2ccc(-c3nc4cc(C(=O)O)ccc4n3C3CCCCC3)c(F)c2)c2ccc(F)cc2)cc1` (centres unmarked) [Example 326, 2-{4-[(4-fluorophenyl){4-(dimethylaminocarbonyl)phenyl}methoxy]-2-fluorophenyl}-1-cyclohexylbenzimidazole-5-carboxylic acid], the pIC50 was 7.74.
For `O=C(O)c1ccc(C(Oc2ccc(-c3nc4cc(C(=O)O)ccc4n3C3CCCCC3)c(F)c2)c2ccc(F)cc2)cc1` (centres unmarked) [Example 327, 2-{4-[(4-fluorophenyl)(4-carboxyphenyl)methoxy]-2-fluorophenyl}-1-cyclohexylbenzimidazole-5-carboxylic acid], the negative-log IC50 (pIC50) is 7.72.
The same measure, in the same setting: as for `O=C(O)c1ccc2c(c1)nc(-c1ccc(OCc3cc(O)ccc3-c3ccc(Cl)cc3)cc1)n2C1CCCCC1` [Example 329, 2-{4-[2-(4-chlorophenyl)-5-hydroxybenzyloxy]phenyl}-1-cyclohexylbenzimidazole-5-carboxylic acid hydrochloride], the figure is 7.33; as for `CC(C)NC(=O)c1ccc(-c2ccc(Cl)cc2)c(COc2ccc(-c3nc4cc(C(=O)O)ccc4n3C3CCCCC3)cc2)c1` [Example 330, 2-{4-[2-(4-chlorophenyl)-5-(isopropylcarbamoyl)benzyloxy]phenyl}-1-cyclohexylbenzimidazole-5-carboxylic acid hydrochloride], 7.96; as for `CC(C)N(C)C(=O)c1ccc(-c2ccc(Cl)cc2)c(COc2ccc(-c3nc4cc(C(=O)O)ccc4n3C3CCCCC3)cc2)c1` [Example 331, 2-{4-[2-(4-chlorophenyl)-5-(N-isopropyl-N-methylcarbamoyl)-benzyloxy]phenyl}-1-cyclohexylbenzimidazole-5-carboxylic acid hydrochloride], 7.77.
As to `O=C(O)c1ccc2c(c1)nc(-c1ccc(OCc3cc(C(=O)Nc4ccccc4)ccc3-c3ccc(Cl)cc3)cc1)n2C1CCCCC1` [Example 332, 2-{4-[2-(4-chlorophenyl)-5-(phenylcarbamoyl)benzyloxy]phenyl}-1-cyclohexylbenzimidazole-5-carboxylic acid hydrochloride], the pIC50 is 7.64.
On the same count and under the same terms, for `COC1CCN(C(=O)c2ccc(-c3ccc(Cl)cc3)c(COc3ccc(-c4nc5cc(C(=O)O)ccc5n4C4CCCCC4)cc3)c2)CC1` [Example 333, 2-{4-[2-(4-chlorophenyl)-5-(4-methoxypiperidinocarbonyl)-benzyloxy]phenyl}-1-cyclohexylbenzimidazole-5-carboxylic acid hydrochloride] the value was 7.80.
As for `O=C(O)c1ccc2c(c1)nc(-c1ccc(OCc3cc(OCCCO)ccc3-c3ccc(Cl)cc3)cc1)n2C1CCCCC1` [Example 334, 2-{4-[2-(4-chlorophenyl)-5-(3-hydroxypropyloxy)benzyloxy]phenyl}-1-cyclohexylbenzimidazole-5-carboxylic acid], the pIC50 is 7.80.
Take `O=C(O)c1ccc2c(c1)nc(-c1ccc(OCc3cc(OCCO)ccc3-c3ccc(Cl)cc3)cc1)n2C1CCCCC1` [Example 335, 2-{4-[2-(4-chlorophenyl)-5-(2-hydroxyethoxy)benzyloxy]phenyl}-1-cyclohexylbenzimidazole-5-carboxylic acid hydrochloride]: the negative logarithm of the IC50 (pIC50) was 7.89.
For the compound `CC1CCN(C(=O)c2ccc(-c3ccc(Cl)cc3)c(COc3ccc(-c4nc5cc(C(=O)O)ccc5n4C4CCCCC4)cc3)c2)CC1` [Example 341, 2-{4-[2-(4-chlorophenyl)-5-(4-methylpiperidin-1-ylcarbonyl)benzyloxy]phenyl}-1-cyclohexylbenzimidazole-5-carboxylic acid hydrochloride], the negative logarithm of the IC50 (pIC50) was 7.60.
`CC(=O)c1ccc(-c2ccc(Cl)cc2)c(COc2ccc(-c3nc4cc(C(=O)O)ccc4n3C3CCCCC3)cc2)c1` [Example 342, 2-{4-[5-acetyl-2-(4-chlorophenyl)benzyloxy]phenyl}-1-cyclohexylbenzimidazole-5-carboxylic acid hydrochloride]: the pIC50 was 7.82.
Same read-out and setting: as for `O=C(O)c1ccc2c(c1)nc(-c1ccc(OCc3cc(OCC(=O)N4CCC(O)CC4)ccc3-c3ccc(Cl)cc3)cc1)n2C1CCCCC1` [Example 343], the figure is 7.77.
